In patent publication US10875898B2, “Bioactive protein, use thereof and method for its production” (Koppert B.V., priority 2014, dated 2020):

Legend:
B. cinerea = assay: infection of tomato leaves by the pathogen B. cinerea; format: in vivo, Botrytis cinerea; conditions: 10 μL applied to tomato leaf 2 hours before B. cinerea spores; up to 72 hr after inoculation
Protocol: FIG. 8: Effect of purified HYTLO1 application on the infection of tomato leaves by the pathogen B. cinerea. 10 μL of a solution of HYTLO1 were applied to tomato leaves and 2 hours later 10 μL of a B. cinerea spore suspension 1×10^6/ml were applied on the same spot. The measures were taken 72 hours post inoculation. The standard deviation bars were obtained from at least three different experiments, with five replicates and a total of 15 treated leaves per treatment. In order to determine if purified HYTLO1 is able to protect the plant from foliar infection by a pathogenic fungus, the protein was tested on tomato grown-up plants against Botrytis cinerea.

cucumber = assay: combined application of HYTLO1, HA and 6PP on cucumber seed germination and growth promotion; format: in vivo; set-up: Root length, increase % vs. Control / Plant fresh weight, increase % vs. Control / Plant dry weight, increase % vs. Control / plant height, increase % vs. Control: concentration or dose not given beside the values
Protocol: Tested metabolites include 6PP and Harzianic Acid, and experiments were performed on seed germination, stem or root elongation as well fresh/dry weight. The results shown in Table 1 were obtained by using cucumber seeds coated with the solutions of the tested compounds, that were then transferred in Petri dishes and left to germinate on filter humid paper. First seed germination was evaluated, then the germinated seedlings were transplanted into pots containing sterilised soil. Other two treatments with the purified molecules were performed at 10 days interval, by drenching the soil with the solutions at the final concentrations of 10^−7M for 6PP and HA, and 10^−8M for HYTLO1. In two-compounds application, half dose of each molecule was used. In three-compound applications, one third of the dose of each molecules was used. Each treatments consisted of 8 plants. Results were collected 30 days after seed coating. Control was produced by adding water instead of the molecule solutions. The effect of the minimal amounts of solvents eventually contained in HA and 6PP solution was preliminary tested, with no differences observed in comparison to water control. The results shown in Table 1 that all of the three tested molecules have a significant beneficial effect on seed germination and plant growth, and that they can be synergistically combined for enhanced effectiveness.

tomato leaves = assay: activation of tomato plant defense responses after leaf injection; format: in vivo
Protocol: FIG. 5: Effect of purified HYTLO1 (5 μM) injected on tomato leaves after 48 hours under UV light. Fluorescence is due to accumulation of compounds related to plant defense response.
FIG. 6: Effect of purified HYTLO1 ([…]) on the activation of tomato plant defense responses. Leaves were injected with […] of the protein solution and analyzed after 24 and 48 hours for the production of: (A) anion superoxide (XTT assay, mg p.s.=milligram of dry weight), (B) SOD activity (U/mg proteins), (C) ROOH peroxide accumulation (FOX1 assay), (D) LOX activity, (E) phytoalexin rishitin accumulation (g f.w.=gram of leaf fresh weight). Values are means+S.E. Methods used are the followings. Lyophilized plant tissues (10 mg) from HYTLO1-injected and -non injected tomato leaves were collected at different time points after inoculation (from 6 to 48 h) and homogenized. Anion superoxide was detected by measuring the reduction of 2,3-bis(2-methoxy-4-nitro-5-sulfophenyl)-5-[(phenylamino) carbonyl]-2H-tetrazolium hydroxide (XTT) to formazan, according to Sutherland, M. W., and B. A. Learmonth, 1997, Free Radical Research, 27:283-289, with modifications reported by Castoria, R., et al., 2003, Phytopathology, 93:564-572. Absorbance at 490 nm was measured in a microplate reader. XTT levels were expressed as mean absorbance values mg-1±standard errors. The activities of SOD, pH 7.8 and 10.0 (EC 1.15.1.1) and LOX enzymes (EC 1.13.11.12) were quantified as described by Reverberi M, et al., 2005, Free Radical Research, 39:637-647. Total hydroperoxides (ROOH) were detected by using the FOX spectrophotometric assay by monitoring the oxidation of xylenol orange at 560 nm (Ferrous ion oxidation xylenol orange: FOX-1) (Banerjee D, et al., 2003, Clinica Chimica Acta, 337:147-152). Quantification of the phytoalexins rishitin was performed by treating the leaf samples with methylene chloride (2 ml) in the presence of 100 mg of BHT. The tubes were left in a fume hood for 15/20 minutes and occasionally shaken. The extracts were filtered on filter paper Whatmann 3 MM and dried under nitrogen flow. Rishitin was quantified by GC-MS as described in Fanelli et al., 1992, Natural Toxins 1: 136-146.
FIG. 7: Effect of purified HYTLO1 on the activation of tomato plant defense responses. Leaves were injected with HYTLO1 at the indicated concentrations and analyzed after 48 hours by Real Time PCR for the accumulation of PR (Pathogenesis-Related)-proteins PR1, PR2 and PIN2 RNA (for methods see Tucci M., et al., 2011, Molecular Plant Pathology, 12:341-354) Values indicated the n. of fold increase vs. untreated control.
We analyzed the plant biochemical reaction to HYTLO1, which resulted stimulatory for the formation of the superoxide anion and hydrogen peroxide, for anion superoxide dismutase (SOD) and LOX activity, and the accumulation of the phytoalexin rishitin (FIG. 6).

Lotus japonicus = assay: Rhizobium lotii on Lotus japonicus in vitro system, plant growth and nodule density; format: in vivo; conditions: HYTLO1 0.07 μM, 6PP 0.002 μM, 4 weeks after seeding
Protocol: Wt+Rhz=treatment with R. loti, Wt-Rhz without R. loti. (D) Growth measured after 4 weeks, in the absence (cont) or presence of Rhizoba R. loti ((+) Rhiz). The purified molecules were added to the sterile MS media and poured into Petri dishes. Data were recorded 4 weeks after seeding of L. japonicus.
FIG. 18. […] (HYT=HYTLO1 at 0.07 μM, 6PP at 0.002 μM, HA=Harzianic Acid at 0.001 μM). Wt=control with R. loti without metabolites. The purified molecules were added to the sterile MS media and poured into Petri dishes. Average number of nodules per cm of root are indicated. Data were recorded 4 weeks after seeding of L. japonicus.
In order to test the effect of HYTLO1, as well as of the secondary metabolites HA and 6PP on the growth promotion activity of Rhizobia, such as Rhizobium sp., on legumimosae plants, we used a standard Rhizobium lotii on Lotus japonicus in vitro system (Barbulova et al., 2005, Functional Plant Biology, 32:529-536). Plant growth and nodule density on the roots were scored four weeks after seeding by comparing untreated controls and the various treatments.

[1] = 0.15, 2.5, 5.0 mM, 24 and 48 hours

Question: How did the “concentration of HYTLO1 that significantly reduced the size of the necrotic area” value (B. cinerea) turn out when “HYTLO1: about 7 KDa Type II hydrophobin protein from Trichoderma longibrachiatum strain MK1, 71 aa, SEQ ID NO: 1” was run?
Answer: above 1.25 μM

Question: And the “Plant dry weight” value (cucumber; 30 days after seed coating, SD +− 1.3 g)?
Answer: 8.4 g

Question: And the “Root length (cm)” value (cucumber; 30 days after seed coating, SD +− 2.1 cm)?
Answer: 14.6 cm

Question: And the “Plant fresh weight” value (cucumber; 30 days after seed coating, SD +− 2.5 g)?
Answer: 24.76 g

Question: What about the “plant height (cm)” value (cucumber; 30 days after seed coating, drench 10^−7M 6PP and HA, 10^−8M HYTLO1, half or one third dose in combinations, SD +− 2.5 cm) of the same substance?
Answer: 24.9 cm

Question: And the “Seed germination (24 h)” value (cucumber; coated cucumber seeds on humid filter paper, SD +− 9%)?
Answer: 78%

Question: And the “Seed germination (24 h), increase % vs. Control” value (cucumber; vs water control)?
Answer: +30%

Question: What about the “Plant dry weight, increase % vs. Control” value (cucumber; vs water control, 30 days) of the same substance?
Answer: 51.2%

Question: What about the “Plant fresh weight, increase % vs. Control” value (cucumber; vs water control, 30 days) of the same substance?
Answer: 34.1%

Question: And the “Root length, increase % vs. Control” value (cucumber; vs water control, 30 days)?
Answer: 17.1%

Question: And the “accumulation of fluorescent compounds under UV light” value (tomato leaves; 5 μM injected on tomato leaves, after 48 hours)?
Answer: accumulation of fluorescent compounds

Question: And the LOX activity (tomato leaves; [1])?
Answer: stimulatory

Question: And the “accumulation of the phytoalexin rishitin” value (tomato leaves; [1])?
Answer: stimulatory

Question: And the “anion superoxide dismutase (SOD) activity” value (tomato leaves; [1])?
Answer: stimulatory

Question: What about the “formation of hydrogen peroxide (ROOH, FOX1 assay)” value (tomato leaves; [1]) of the same substance?
Answer: stimulatory

Question: And the “formation of the superoxide anion (XTT assay)” value (tomato leaves; [1])?
Answer: stimulatory

Question: And the “defense responses in leaves distant from the site of application” value (tomato leaves; tomato leaf injection)?
Answer: systemic effect

Question: What about the “activation of defense-related genes PR1, PR2 and PIN1 (RT-PCR)” value (tomato leaves; tomato leaves, 48 hours) of the same substance?
Answer: induced the activation

Question: What about the “plant growth promotion effect of Rhizobia on Lotus japonicus” value (Lotus japonicus; HA 0.001 μM in MS media) of the same substance?
Answer: enhances the plant growth promotion effect of Rhizobia

Question: What about the “nodule formation (number of nodules per cm of root)” value (Lotus japonicus; HA 0.001 μM, with R. loti) of the same substance?
Answer: Enhancement of nodule formation
